This is an account of results in patent publication US20230141603A1, “BENZODIAZEPINE DERIVATIVES AS GABA A GAMMA1 PAM” (Hoffmann-La Roche Inc., priority 2021, published 2023).

Usually Ki stands for the equilibrium dissociation constant of an inhibitor or competing ligand from its target. Read a high Ki as weaker binding.

Structures are written as SMILES.

For one assay, the target named is T1, h-GABAA α1β2γ1 (Homo sapiens, UniProt P14867+Q8N1C3).
T1 construct: expressed in transfected cells; host or cells: HEK293F cells (ThermoFisher R79007), membranes
T1 sequence (P14867 28-456): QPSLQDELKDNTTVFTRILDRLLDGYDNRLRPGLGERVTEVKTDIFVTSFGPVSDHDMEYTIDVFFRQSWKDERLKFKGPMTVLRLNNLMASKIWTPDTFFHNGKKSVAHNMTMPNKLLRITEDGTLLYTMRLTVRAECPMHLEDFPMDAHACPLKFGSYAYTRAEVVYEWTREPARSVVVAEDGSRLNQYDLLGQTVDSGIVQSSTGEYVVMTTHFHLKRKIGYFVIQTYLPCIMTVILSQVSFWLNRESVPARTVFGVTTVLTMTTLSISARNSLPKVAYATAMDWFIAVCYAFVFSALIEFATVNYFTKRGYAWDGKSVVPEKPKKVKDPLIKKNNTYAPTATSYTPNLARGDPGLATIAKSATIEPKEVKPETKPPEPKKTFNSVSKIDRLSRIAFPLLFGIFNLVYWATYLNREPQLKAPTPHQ
T1 sequence (P47870 25-512 partner limits assumed): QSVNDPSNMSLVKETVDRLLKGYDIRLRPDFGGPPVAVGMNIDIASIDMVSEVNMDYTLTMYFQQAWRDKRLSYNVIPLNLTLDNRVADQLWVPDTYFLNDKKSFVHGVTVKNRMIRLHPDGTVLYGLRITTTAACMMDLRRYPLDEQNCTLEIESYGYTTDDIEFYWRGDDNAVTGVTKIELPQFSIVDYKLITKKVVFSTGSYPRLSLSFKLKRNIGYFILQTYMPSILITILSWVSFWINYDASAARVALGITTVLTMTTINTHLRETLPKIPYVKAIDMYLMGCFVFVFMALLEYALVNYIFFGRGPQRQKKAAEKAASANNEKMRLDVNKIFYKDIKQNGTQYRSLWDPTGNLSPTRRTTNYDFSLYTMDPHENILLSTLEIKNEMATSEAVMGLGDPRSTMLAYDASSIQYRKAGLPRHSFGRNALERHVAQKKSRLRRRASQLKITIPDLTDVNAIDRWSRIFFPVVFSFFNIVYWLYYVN
T1 sequence (Q8N1C3 36-465): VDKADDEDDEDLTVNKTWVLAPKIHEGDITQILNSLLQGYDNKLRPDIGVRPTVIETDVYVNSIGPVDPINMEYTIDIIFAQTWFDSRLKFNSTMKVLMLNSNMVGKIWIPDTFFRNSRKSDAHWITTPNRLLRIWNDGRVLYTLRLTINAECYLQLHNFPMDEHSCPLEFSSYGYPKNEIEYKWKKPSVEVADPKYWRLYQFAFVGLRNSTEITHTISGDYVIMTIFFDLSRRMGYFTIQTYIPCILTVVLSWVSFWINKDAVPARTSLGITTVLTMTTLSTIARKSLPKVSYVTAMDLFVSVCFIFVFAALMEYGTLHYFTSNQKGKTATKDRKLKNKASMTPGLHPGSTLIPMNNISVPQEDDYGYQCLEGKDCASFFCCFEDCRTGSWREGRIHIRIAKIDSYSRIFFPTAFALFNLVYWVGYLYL
As to the kind of experiment: Radioligand binding assay, [3H]RO7239181 competition, HEK293F membranes.

A further assay addresses T2, h-GABAA α1β3γ2 (Homo sapiens, UniProt P14867+P18507).
T2 construct: expressed in transfected cells; host or cells: HEK293F cells, membranes
As to the kind of experiment: Radioligand binding assay, [3H]Flumazenil competition, HEK293F membranes. The note with it: for γ2/γ1 Selectivity Ratio / LogSel: Table 1; for γ2/γ1 Selectivity Ratio: Ki α1β3γ2 (nM)/Ki α2β2γ1 (nM); for LogSel: Log[Ki α1β3γ2 (nM)/Ki α2β2γ1 (nM)]. Put shortly:
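[3H]Flumazenil competition binding on membranes from HEK293F cells transiently expressing human α1β3γ2 receptors. Incubation to equilibrium for 1 h at 4 °C, then filtration and scintillation counting. Ki is the mean of two determinations.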

On to `Cc1ccc2c(c1Cl)C(c1c(F)cccc1F)=NCc1nnc(-c3cccnn3)n1-2` [Example 48, 7-chloro-6-(2,6-difluorophenyl)-8-methyl-1-pyridazin-3-yl-4H-[1,2,4]triazolo[4,3-a][1,4]benzodiazepine], for which the Ki on h-GABAA α1β2γ1 came to 20.8 nM. On h-GABAA α1β3γ2, the Ki is 952 nM, the “γ2/γ1 Selectivity Ratio” value stood at 114.1 and the LogSel was determined as 2.06.
Taken in the same sequence, the figures for `Cc1ccc2c(c1Cl)C(c1c(F)cccc1F)=NCc1nnc(-c3ccncn3)n1-2` [Example 49, 7-chloro-6-(2,6-difluorophenyl)-8-methyl-1-pyrimidin-4-yl-4H-[1,2,4]triazolo[4,3-a][1,4]benzodiazepine] were 40.5 nM, 1470 nM, 104.3 and 2.02.
Compound `Cc1nnc2n1-c1ccc(Br)c(Cl)c1C(c1c(F)cccc1Cl)=NC2` [Example 50, 8-bromo-7-chloro-6-(2-chloro-6-fluoro-phenyl)-1-methyl-4H-[1,2,4]triazolo[4,3-a][1,4]benzodiazepine] yielded a Ki at h-GABAA α1β2γ1 of 8.9 nM. Further, on h-GABAA α1β3γ2, the Ki came out at 73.8 nM, the “γ2/γ1 Selectivity Ratio” value was 15.8 and the LogSel is listed as 1.20.
The compound `Fc1cccnc1C1=NCc2nnc(-c3cccnn3)n2-c2ccc(Cl)c(Cl)c21` [Example 54, 7,8-dichloro-6-(3-fluoro-2-pyridyl)-1-pyridazin-3-yl-4H-[1,2,4]triazolo[4,3-a][1,4]benzodiazepine] registered an inhibition constant (Ki) at h-GABAA α1β2γ1 of 121 nM. Further, at h-GABAA α1β3γ2, the affinity, expressed as Ki, was 2070 nM; the “γ2/γ1 Selectivity Ratio” value was 68.7; the LogSel amounted to 1.84.
Taken in the same sequence, the figures for `Fc1cccnc1C1=NCc2nnc(-c3ccncn3)n2-c2ccc(Cl)c(Cl)c21` [Example 55, 7,8-dichloro-6-(3-fluoro-2-pyridyl)-1-pyrimidin-4-yl-4H-[1,2,4]triazolo[4,3-a][1,4]benzodiazepine] were 133 nM, 1720 nM, 92.9 and 1.97.
Take `COc1ccc2c(c1Cl)C(c1c(F)cccc1F)=NCc1nnc(-c3cccnn3)n1-2` [Example 57, 7-chloro-6-(2,6-difluorophenyl)-8-methoxy-1-pyridazin-3-yl-4H-[1,2,4]triazolo[4,3-a][1,4]benzodiazepine]: the Ki at h-GABAA α1β2γ1 was 170 nM. Also, at h-GABAA α1β3γ2, the Ki came out at 2110 nM, the “γ2/γ1 Selectivity Ratio” value is listed as 36.5 and the LogSel amounted to 1.56.
Taken in the same sequence, the figures for `Cn1cc(-c2nnc3n2-c2ccc(Cl)c(Cl)c2C(c2ncccc2F)=NC3)cn1` [Example 58, 7,8-dichloro-6-(3-fluoro-2-pyridyl)-1-(1-methylpyrazol-4-yl)-4H-[1,2,4]triazolo[4,3-a][1,4]benzodiazepine] were 131 nM, 1300 nM, 39.4 and 1.60.
Compound `O=c1[nH]nc2n1-c1ccc(Cl)c(Cl)c1C(c1ncccc1F)=NC2` [Example 59, 7,8-dichloro-6-(3-fluoro-2-pyridyl)-2,4-dihydro-[1,2,4]triazolo[4,3-a][1,4]benzodiazepin-1-one] yielded a Ki on h-GABAA α1β2γ1 of 54 nM. Also, at h-GABAA α1β3γ2, the affinity, expressed as Ki, was 577 nM; the “γ2/γ1 Selectivity Ratio” value came out at 21.9; the LogSel stood at 1.34.
`Fc1cccnc1C1=NCc2nncn2-c2ccc(Cl)c(Cl)c21` [Example 60, 7,8-dichloro-6-(3-fluoro-2-pyridyl)-4H-[1,2,4]triazolo[4,3-a][1,4]benzodiazepine]: the Ki on h-GABAA α1β2γ1 was found to be 161 nM. Moreover, at h-GABAA α1β3γ2, the inhibition constant (Ki) came out at 1110 nM, the “γ2/γ1 Selectivity Ratio” value is listed as 28.6 and the LogSel turned out to be 1.46.
`COc1ccc2c(c1Cl)C(c1c(F)cccc1F)=NCc1nnc(-c3ccncn3)n1-2` [Example 61, 7-chloro-6-(2,6-difluorophenyl)-8-methoxy-1-pyrimidin-4-yl-4H-[1,2,4]triazolo[4,3-a][1,4]benzodiazepine]: the affinity on h-GABAA α1β2γ1 corresponds to a Ki of 119 nM. Also, on h-GABAA α1β3γ2, the Ki turned out to be 2140 nM, the “γ2/γ1 Selectivity Ratio” value turned out to be 27.6 and the LogSel was 1.44.
At h-GABAA α1β2γ1, `COc1ccc2c(c1Cl)C(c1c(F)cccc1F)=NCc1nnc(-c3cccnc3)n1-2` [Example 62, 7-chloro-6-(2,6-difluorophenyl)-8-methoxy-1-(3-pyridyl)-4H-[1,2,4]triazolo[4,3-a][1,4]benzodiazepine] gave a Ki of 161 nM. Moreover, on h-GABAA α1β3γ2, the Ki was found to be 2150 nM, the “γ2/γ1 Selectivity Ratio” value worked out at 38.9 and the LogSel was 1.59.
`Fc1cccnc1C1=NCc2nnc(C3CC3)n2-c2ccc(Cl)c(Cl)c21` [Example 65, 7,8-dichloro-1-cyclopropyl-6-(3-fluoro-2-pyridyl)-4H-[1,2,4]triazolo[4,3-a][1,4]benzodiazepine]: at h-GABAA α1β2γ1, the Ki turned out to be 110 nM. At h-GABAA α1β3γ2, the Ki amounted to 1560 nM, the “γ2/γ1 Selectivity Ratio” value came to 24.0 and the LogSel was found to be 1.38.
Taken in the same sequence, the figures for `Fc1cccnc1C1=NCc2nnc(-c3ccncn3)n2-c2ccc(C(F)(F)F)c(Cl)c21` [Example 69, 7-chloro-6-(3-fluoro-2-pyridyl)-1-pyrimidin-4-yl-8-(trifluoromethyl)-4H-[1,2,4]triazolo[4,3-a][1,4]benzodiazepine] were 139 nM, 10600 nM, 166.3 and 2.22.
Regarding `Cn1cc(-c2nnc3n2-c2ccc(C(F)(F)F)c(Cl)c2C(c2ncccc2F)=NC3)cn1` [Example 70, 7-chloro-6-(3-fluoro-2-pyridyl)-1-(1-methylpyrazol-4-yl)-8-(trifluoromethyl)-4H-[1,2,4]triazolo[4,3-a][1,4]benzodiazepine], the Ki at h-GABAA α1β2γ1 was determined as 275 nM. For the same compound, at h-GABAA α1β3γ2, the Ki turned out to be 5980 nM, the “γ2/γ1 Selectivity Ratio” value is listed as 144.5 and the LogSel was 2.16.
Taken in the same sequence, the figures for `Cc1nnc2n1-c1ccc(Cl)c(Cl)c1C(c1ncccc1F)=NC2` [Example 71, 7,8-dichloro-6-(3-fluoro-2-pyridyl)-1-methyl-4H-[1,2,4]triazolo[4,3-a][1,4]benzodiazepine] were 178 nM, 1080 nM, 28.7 and 1.46.
Regarding `Fc1cccnc1C1=NCc2nnc(-c3cccnn3)n2-c2ccc(C(F)(F)F)c(Cl)c21` [Example 72, 7-chloro-6-(3-fluoro-2-pyridyl)-1-pyridazin-3-yl-8-(trifluoromethyl)-4H-[1,2,4]triazolo[4,3-a][1,4]benzodiazepine], the Ki at h-GABAA α1β2γ1 was determined as 274 nM. Further, at h-GABAA α1β3γ2, the inhibition constant (Ki) stood at 10300 nM, the “γ2/γ1 Selectivity Ratio” value is 342.1 and the LogSel is 2.53.
Taken in the same sequence, the figures for `Fc1cccnc1C1=NCc2nnc(C3CC3)n2-c2ccc(Br)c(Cl)c21` [Example 77, 8-bromo-7-chloro-1-cyclopropyl-6-(3-fluoro-2-pyridyl)-4H-[1,2,4]triazolo[4,3-a][1,4]benzodiazepine] were 41.5 nM, 716 nM, 36.6 and 1.56.
Taken in the same sequence, the figures for `Cc1nnc2n1-c1ccc(C(F)(F)F)c(Cl)c1C(c1ncccc1F)=NC2` [Example 78, 7-chloro-6-(3-fluoro-2-pyridyl)-1-methyl-8-(trifluoromethyl)-4H-[1,2,4]triazolo[4,3-a][1,4]benzodiazepine] were 67.7 nM, 4440 nM, 87.4 and 1.94.
